Patent publication US10683278B2 (JINAN UNIVERSITY, priority 2015, dated 2020)

Tested on: 4T1 cells
Assay: In vivo metastasis of 4T1 xenografts
Conditions: BALB/c mice, 4T1 subcutaneous, oral 30 and 90 mg/kg per day, 21 days
Description: BALB/c mice were selected and 4T1 cells (0.5×10^6/mouse) were inoculated subcutaneously on their right sides. Twenty-four days after inoculation, the mice were randomly divided into treatment and control groups (10 in each group). The mice in each group were orally administered for 21 days, and the drug dose in the treatment group was 30 mg/kg and 90 mg/kg of compound 2-lin per day, respectively. The mice were measured for body weight and tumor volume every two days. After the mice reached the end of administration, the liver tissues of mice were excised and collected, fixed with 10% formaldehyde solution, embedded in paraffin, sectioned, and stained with eosin. Microscopic examination of micrometastases in at least three fields of view was performed and the number of liver micrometastases was calculated.
The tumor volume is calculated by the formula of TV=W^2(L/2), wherein L is the length and W is the width.

CCc1ccc2c(c1)c(=O)c(C(=O)Nc1ccc(Oc3ncnc4cc(OC)c(OC)cc34)c(F)c1)c(C)n2C [TL4800191, N-(4-(6,7-dimethoxyquinazolin-4-yloxy)-3-fluorophenyl)-6-ethyl-1,2-dimethyl-4-oxo-1,4-dihydroquinoline-3-carboxamide]
growth of in situ tumor: no obvious inhibitory effect
number and size of liver metastasis: inhibit the number and size of liver metastasis in a dose-dependent manner
